PubChem BioAssay (NCI)
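Cells were grown in 96-well plates and exposed to each compound for 48 hours at five concentrations; endpoints were interpolated linearly between bracketing concentrations, or set to the highest concentration if not reached. At the GI50, growth is halved. TGI marks complete inhibition of growth.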

How the values were obtained:
Assay in all cases: NCI tumour cell line growth inhibition, 48 h
SK-OV-3 ovarian = tested on: SK-OV-3 ovarian
HS 578T breast = tested on: HS 578T breast
CAKI-1 renal = tested on: CAKI-1 renal
HCT-15 colon = tested on: HCT-15 colon
MCF7 breast = tested on: MCF7 breast
LOX IMVI melanoma = tested on: LOX IMVI melanoma
A549 NSCLC = tested on: A549 NSCLC
SK-MEL-28 melanoma = tested on: SK-MEL-28 melanoma
NCI-H226 lung = tested on: NCI-H226 lung
OVCAR-4 ovarian = tested on: OVCAR-4 ovarian

## C=C1C(=O)O[C@H]2[C@H]1CC/C(COC(=O)c1ccc3ccccc3c1)=C\CC[C@@]1(C)O[C@@H]21
SK-OV-3 ovarian
  GI50: 3.51 µM
  TGI: 10.8 µM
HS 578T breast
  GI50: 1.53 µM
  TGI: 4.51 µM
CAKI-1 renal
  GI50: 1.22 µM
  TGI: 2.46 µM
HCT-15 colon
  GI50: 0.394 µM
  TGI: 1.66 µM
MCF7 breast
  GI50: 0.457 µM
  TGI: 2.52 µM
LOX IMVI melanoma
  GI50: 0.406 µM
  TGI: 1.46 µM
A549 NSCLC
  GI50: 1.59 µM
  TGI: 3.43 µM
SK-MEL-28 melanoma
  GI50: 1.47 µM
  TGI: 2.96 µM
NCI-H226 lung
  GI50: 1.42 µM
  TGI: 3.21 µM
OVCAR-4 ovarian
  GI50: 1.52 µM
  TGI: 3.32 µM

## COc1ccc(/C=C/c2nccc3ccccc23)cc1OC
SK-OV-3 ovarian
  TGI: > 10 µM
HS 578T breast
  TGI: > 10 µM
CAKI-1 renal
  TGI: > 10 µM
HCT-15 colon
  TGI: > 10 µM
MCF7 breast
  TGI: > 10 µM
LOX IMVI melanoma
  TGI: > 10 µM
A549 NSCLC
  TGI: > 10 µM
SK-MEL-28 melanoma
  TGI: > 10 µM
NCI-H226 lung
  TGI: > 10 µM
OVCAR-4 ovarian
  TGI: > 10 µM

## Nc1cc(N)c2nc(-c3ccccc3)c(Nc3ccc(Cl)c(Cl)c3)nc2c1
SK-OV-3 ovarian
  GI50: 13.7 µM
  TGI: 31.3 µM
HS 578T breast
  GI50: 18.9 µM
  TGI: 51.7 µM
CAKI-1 renal
  GI50: 13.5 µM
  TGI: 29.6 µM
HCT-15 colon
  GI50: 21.2 µM
  TGI: > 100 µM
MCF7 breast
  GI50: 4.96 µM
  TGI: 21.1 µM
LOX IMVI melanoma
  GI50: 4.38 µM
  TGI: > 100 µM
A549 NSCLC
  GI50: 10.8 µM
  TGI: 34.7 µM
SK-MEL-28 melanoma
  GI50: 16.1 µM
  TGI: 44.2 µM
NCI-H226 lung
  GI50: 17.5 µM
  TGI: 37.6 µM
OVCAR-4 ovarian
  GI50: 11.1 µM
  TGI: 47.8 µM

## COc1ccc(NC2=CC(=O)C(=O)c3ccccc32)nn1
SK-OV-3 ovarian
  TGI: 9.41 µM
HS 578T breast
  TGI: > 100 µM
CAKI-1 renal
  TGI: 6.24 µM
HCT-15 colon
  TGI: 2.51 µM
MCF7 breast
  TGI: 2.14 µM
LOX IMVI melanoma
  TGI: 4.14 µM
A549 NSCLC
  TGI: 31.2 µM
SK-MEL-28 melanoma
  TGI: 2.3 µM
NCI-H226 lung
  TGI: 5.5 µM
OVCAR-4 ovarian
  TGI: 2.79 µM

## CCOc1cc2c(Cl)ncnc2c(OCC)c1OCC
SK-OV-3 ovarian
  GI50: 16.5 µM
  TGI: 30.5 µM
HS 578T breast
  GI50: 2.07 µM
  TGI: 5.45 µM
CAKI-1 renal
  GI50: 1.56 µM
  TGI: 3.03 µM
HCT-15 colon
  GI50: 2.56 µM
  TGI: 9.07 µM
MCF7 breast
  GI50: 2.3 µM
  TGI: 7.55 µM
LOX IMVI melanoma
  GI50: 3.39 µM
  TGI: 10 µM
A549 NSCLC
  GI50: 24.6 µM
  TGI: > 79.8 µM
SK-MEL-28 melanoma
  GI50: 2.15 µM
  TGI: 5.26 µM
NCI-H226 lung
  GI50: 12.7 µM
  TGI: 33.3 µM
OVCAR-4 ovarian
  GI50: 13 µM
  TGI: 27.7 µM

## COC1/C=C\C=C(/C)C(=O)NC2=CC(=O)C(=O)C(=C2O)CC(C)CC(OC)C(O)C(C)/C=C(\C)C1OC(N)=O (configuration not stated)
SK-OV-3 ovarian
  TGI: > 100 µM
HS 578T breast
  TGI: > 100 µM
CAKI-1 renal
  TGI: > 42 µM
HCT-15 colon
  TGI: > 100 µM
MCF7 breast
  TGI: > 42.4 µM
LOX IMVI melanoma
  TGI: 13.9 µM
A549 NSCLC
  TGI: > 100 µM
SK-MEL-28 melanoma
  TGI: > 49.3 µM
NCI-H226 lung
  TGI: > 100 µM
OVCAR-4 ovarian
  TGI: 22.1 µM

## Oc1ccc(NCc2nc3ccccc3[nH]2)cc1
SK-OV-3 ovarian
  GI50: 32.1 µM
  TGI: > 100 µM
HS 578T breast
  GI50: 15 µM
  TGI: 79.2 µM
CAKI-1 renal
  GI50: > 100 µM
  TGI: > 100 µM
HCT-15 colon
  GI50: > 100 µM
  TGI: > 100 µM
MCF7 breast
  GI50: 32.8 µM
  TGI: > 100 µM
LOX IMVI melanoma
  GI50: 73.9 µM
  TGI: > 100 µM
A549 NSCLC
  GI50: 51.6 µM
  TGI: > 100 µM
SK-MEL-28 melanoma
  GI50: 38.4 µM
  TGI: > 100 µM
NCI-H226 lung
  GI50: > 100 µM
  TGI: > 100 µM
OVCAR-4 ovarian
  GI50: 28.7 µM
  TGI: > 100 µM

## CN1CCN(C)C12C=c1ccccc1=CC21CC1
SK-OV-3 ovarian
  TGI: > 100 µM
HS 578T breast
  TGI: > 31.6 µM
CAKI-1 renal
  TGI: > 100 µM
HCT-15 colon
  TGI: 73.6 µM
MCF7 breast
  TGI: > 100 µM
LOX IMVI melanoma
  TGI: 90 µM
A549 NSCLC
  TGI: > 100 µM
SK-MEL-28 melanoma
  TGI: 43 µM
NCI-H226 lung
  TGI: > 100 µM
OVCAR-4 ovarian
  TGI: > 100 µM

## CC[CH2][Sn]([CH2]CC)([O]C(=O)c1cccnc1SC)[O][Sn]([CH2]CC)([CH2]CC)[O]C(=O)c1cccnc1SC
SK-OV-3 ovarian
  GI50: 1.53 µM
  TGI: 3.61 µM
HS 578T breast
  GI50: 1.5 µM
  TGI: 6.36 µM
CAKI-1 renal
  GI50: 0.266 µM
  TGI: 0.801 µM
HCT-15 colon
  GI50: 0.246 µM
  TGI: 0.998 µM
MCF7 breast
  GI50: 0.495 µM
  TGI: 1.72 µM
LOX IMVI melanoma
  GI50: 0.23 µM
  TGI: 0.567 µM
A549 NSCLC
  GI50: 3.2 µM
  TGI: 6.24 µM
SK-MEL-28 melanoma
  GI50: 0.296 µM
  TGI: 0.711 µM
NCI-H226 lung
  GI50: 0.614 µM
  TGI: 1.79 µM
OVCAR-4 ovarian
  GI50: 1.03 µM
  TGI: 2.34 µM

## O=c1[nH]ncc(Br)c1Br
SK-OV-3 ovarian
  GI50: 13.9 µM
  TGI: 26.8 µM
HS 578T breast
  GI50: 2.23 µM
  TGI: 9.51 µM
CAKI-1 renal
  GI50: 1.44 µM
  TGI: 2.74 µM
HCT-15 colon
  GI50: 1.72 µM
  TGI: 3.3 µM
MCF7 breast
  GI50: 2 µM
  TGI: 11 µM
LOX IMVI melanoma
  GI50: 1.65 µM
  TGI: 3.06 µM
A549 NSCLC
  GI50: 13.3 µM
  TGI: 29.1 µM
SK-MEL-28 melanoma
  GI50: 1.74 µM
  TGI: 3.12 µM
NCI-H226 lung
  GI50: 2.19 µM
  TGI: 5.96 µM
OVCAR-4 ovarian
  GI50: 1.71 µM
  TGI: 3.08 µM

## CC[C@]1(O)C[C@@H]2CN(CCc3c([nH]c4ccccc34)[C@@](C(=O)OC)(c3cc4c(cc3OC)N(C)[C@H]3[C@@](O)(C(=O)OC)[C@H](OC(C)=O)[C@]5(CC)C=CCN6CC[C@]43[C@@H]65)C2)C1
SK-OV-3 ovarian
  TGI: 45 µM
HS 578T breast
  GI50: < 0.01 µM
  TGI: 10.8 µM
CAKI-1 renal
  GI50: < 0.01 µM
  TGI: 4.65 µM
HCT-15 colon
  GI50: < 0.0116 µM
  TGI: 14.6 µM
MCF7 breast
  GI50: < 0.01 µM
  TGI: 32.3 µM
LOX IMVI melanoma
  GI50: < 0.01 µM
  TGI: 14.8 µM
A549 NSCLC
  GI50: < 0.01 µM
  TGI: > 100 µM
SK-MEL-28 melanoma
  GI50: 11.1 µM
  TGI: 28 µM
NCI-H226 lung
  TGI: 17.7 µM
OVCAR-4 ovarian
  TGI: > 100 µM

## Oc1ccc2ccccc2c1N=Nc1nccs1
SK-OV-3 ovarian
  GI50: 1.98 µM
  TGI: 41.2 µM
HS 578T breast
  GI50: 4.55 µM
  TGI: 45.2 µM
CAKI-1 renal
  GI50: 0.323 µM
  TGI: 11.6 µM
HCT-15 colon
  GI50: 0.32 µM
  TGI: 19.6 µM
MCF7 breast
  GI50: 0.471 µM
  TGI: 16.7 µM
LOX IMVI melanoma
  GI50: 0.328 µM
  TGI: 17.5 µM
A549 NSCLC
  GI50: 6.18 µM
  TGI: > 53.4 µM
SK-MEL-28 melanoma
  GI50: 2.55 µM
  TGI: 18.6 µM
NCI-H226 lung
  GI50: 2.75 µM
  TGI: > 52.9 µM
OVCAR-4 ovarian
  GI50: 0.457 µM
  TGI: 16.8 µM

## COc1ccc(-c2cc(=O)c3c(OC)c(OC)c(OC)cc3o2)cc1
SK-OV-3 ovarian
  TGI: 88.2 µM
HS 578T breast
  TGI: > 100 µM
CAKI-1 renal
  TGI: > 100 µM
HCT-15 colon
  TGI: > 100 µM
MCF7 breast
  TGI: > 100 µM
LOX IMVI melanoma
  TGI: 81.5 µM
A549 NSCLC
  TGI: 85.9 µM
SK-MEL-28 melanoma
  TGI: > 100 µM
NCI-H226 lung
  TGI: > 100 µM
OVCAR-4 ovarian
  TGI: > 100 µM
